Measured values published in patent publication US20100190710A1, “IL-23 RECEPTOR ANTAGONISTS AND USES THEREOF” (Valorisation HSJ, Societe en Commandite, priority 2007, published 2010).
Peptide text beside a SMILES is read from it.

Tests used:
IL-23 receptor = target: T1, IL-23 receptor (Homo sapiens, UniProt Q5VWK5); assay: IL-23-induced TNFα production in PMA-activated HL-60 monocytes (ELISA); format: cell-based; design: endogenous in cells; conditions: IL-23 10 ng/ml, ELISA 24 hours after stimulation, read-out: Emax, inhibition of IL-23-induced TNF formation
T1 sequence (Q5VWK5 24-629): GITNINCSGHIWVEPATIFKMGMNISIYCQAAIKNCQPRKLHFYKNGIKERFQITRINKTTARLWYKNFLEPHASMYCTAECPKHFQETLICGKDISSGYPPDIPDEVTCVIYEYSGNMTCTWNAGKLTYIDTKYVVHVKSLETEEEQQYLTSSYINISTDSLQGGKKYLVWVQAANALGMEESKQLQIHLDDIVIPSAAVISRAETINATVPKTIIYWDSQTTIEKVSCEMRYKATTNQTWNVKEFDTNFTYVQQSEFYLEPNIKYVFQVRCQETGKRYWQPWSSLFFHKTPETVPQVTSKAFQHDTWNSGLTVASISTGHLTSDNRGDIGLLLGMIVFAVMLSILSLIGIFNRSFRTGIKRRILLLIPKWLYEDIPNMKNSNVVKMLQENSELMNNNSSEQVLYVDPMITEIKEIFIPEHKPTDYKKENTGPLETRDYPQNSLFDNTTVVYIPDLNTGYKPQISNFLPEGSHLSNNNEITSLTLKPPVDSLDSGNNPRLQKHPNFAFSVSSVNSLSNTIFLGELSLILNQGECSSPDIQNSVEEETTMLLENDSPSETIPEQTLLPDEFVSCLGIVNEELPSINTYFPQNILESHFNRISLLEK
Description: FIGS. 3A and 3B are graphs showing inhibition of IL-23-induced STAT3 phosphorylation and TNFα generation. […] Western Blot analysis was performed on cell lysates, and immunoblot densitometry was measured using ImagePro4+ software. […] TNFα production was quantified by ELISA 24 hours after stimulation with IL-23 using the Quantikine ELISA Kit (R&D systems).
D-peptides 2303, 2305, 2307 and 2309 (1 μM) inhibit IL-23-induced STAT3 phosphorylation in phorbol 12-myristate 13-acetate (PMA)-activated human monocytes (HL-60) (FIG. 2).

PMA-induced ear edema = assay: PMA-induced ear edema, enteral (oral) administration; format: in vivo, rats; conditions: 20 mg/kg administered orally
Description: FIGS. 13A and 13B are graphs showing the effect of peptides APG-2305 (FIG. 13A) and APG-2309 (FIG. 13B) on PMA-induced inflammation. Intraperitoneal administration is abreviated “i.p.” and oral administration is abreviated “p.o.” Peptides APG-2305 and APG-2309 were also given by enteral administration to rats to verify their oral availability. The peptides at various concentrations were injected (twice a day; 200 μl) into the stomach with a gavage needle (Number 20) starting at day 2 of PMA treatment. On day 4 the total peptide dose was given as a bolus and animals were sacrificed 4-6 hours later. […] Scrambled peptide of APG-2305 (5 mg/kg/day) and intraperitoneal APG-2305 served as negative and positive controls respectively. APG-2309 was also injected enterally but inhibit PMA-induced ear edema only slightly at 20 mg/kg administered orally (FIG. 13B). APG-2309 is more hydrophobic than APG-2305.

CSCC[C@@H](N)C(=O)N[C@H](CCC(=O)O)C(=O)N[C@H](CCC(=O)O)C(=O)N[C@H](CO)C(=O)N[C@H](CCCCN)C(=O)N[C@H](CCC(N)=O)C(=O)N[C@H](CC(C)C)C(=O)N[C@H](CCC(N)=O)C(=O)N[C@H](CC(C)C)C(=O)O [Peptide 2309, MEESKQLQL] (HELM PEPTIDE1{[dM].[dE].[dE].[dS].[dK].[dQ].[dL].[dQ].[dL]}$$$$V2.0; N-terminus and C-terminus assumed)
Emax (IL-23 receptor): ~80% | PMA-induced ear edema (PMA-induced ear edema): only slightly
